The source of these data is patent US20090298820A1, “3-SUBSTITUTED-1H-PYRROLO[2,3-B]PYRIDINE AND 3-SUBSTITUTED-1H-PYRROLO[3,2-B]PYRIDINE COMPOUNDS, THEIR USE AS MTOR KINASE AND PI3 KINASE INHIBITORS, AND THEIR SYNTHESES” (Wyeth, priority 2008, published 2009).

One data set addresses PI3Kγ (Homo sapiens, UniProt P48736). The experiment in a line: PI3K-gamma fluorescence polarization assay. Format: biochemical. Particulars: read-out: PI3Kγ Median IC50.
The next data set has as its target mTOR (Homo sapiens, UniProt P42345). The experiment in a line: mTOR enzyme assay (DELFIA format, His6-S6K substrate). The following applies: read-out: mTOR Kinase Median IC50. Format: biochemical.
The target of another data set is PI3Kα (Homo sapiens, UniProt P42336). Nature of the data set: PI3K-alpha fluorescence polarization assay. Particulars: read-out: PI3Kα Median IC50. It is filed as biochemical.
Sequence of PI3Kα (P42336 whole entry, species assumed): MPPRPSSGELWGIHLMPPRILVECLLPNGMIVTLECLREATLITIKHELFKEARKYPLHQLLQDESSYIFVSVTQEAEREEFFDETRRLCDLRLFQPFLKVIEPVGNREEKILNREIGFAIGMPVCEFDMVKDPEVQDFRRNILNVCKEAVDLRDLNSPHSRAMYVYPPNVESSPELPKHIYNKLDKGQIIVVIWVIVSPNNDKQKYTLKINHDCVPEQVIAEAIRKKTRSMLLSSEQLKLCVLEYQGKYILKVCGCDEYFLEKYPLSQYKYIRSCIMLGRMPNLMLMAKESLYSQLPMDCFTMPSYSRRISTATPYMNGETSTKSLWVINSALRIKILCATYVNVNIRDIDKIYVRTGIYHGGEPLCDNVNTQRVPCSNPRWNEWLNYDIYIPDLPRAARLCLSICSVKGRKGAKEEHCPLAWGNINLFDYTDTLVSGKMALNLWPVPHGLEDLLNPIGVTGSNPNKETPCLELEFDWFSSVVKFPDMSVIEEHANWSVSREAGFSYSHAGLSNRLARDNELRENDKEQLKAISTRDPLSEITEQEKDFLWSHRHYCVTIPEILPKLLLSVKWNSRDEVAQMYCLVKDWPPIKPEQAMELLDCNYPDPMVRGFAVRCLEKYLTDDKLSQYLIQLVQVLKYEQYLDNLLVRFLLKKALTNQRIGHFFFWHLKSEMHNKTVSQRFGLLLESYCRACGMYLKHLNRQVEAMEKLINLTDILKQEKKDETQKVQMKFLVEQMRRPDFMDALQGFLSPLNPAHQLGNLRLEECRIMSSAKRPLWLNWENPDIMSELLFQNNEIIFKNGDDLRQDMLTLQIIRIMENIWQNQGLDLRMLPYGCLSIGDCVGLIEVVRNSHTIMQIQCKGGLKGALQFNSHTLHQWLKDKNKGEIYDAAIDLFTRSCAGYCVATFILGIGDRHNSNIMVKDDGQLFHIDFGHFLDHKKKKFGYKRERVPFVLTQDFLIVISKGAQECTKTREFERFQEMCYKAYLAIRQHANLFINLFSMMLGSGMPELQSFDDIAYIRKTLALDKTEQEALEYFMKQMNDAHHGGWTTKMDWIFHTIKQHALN
Sequence of PI3Kα (P27986 whole entry partner, species assumed): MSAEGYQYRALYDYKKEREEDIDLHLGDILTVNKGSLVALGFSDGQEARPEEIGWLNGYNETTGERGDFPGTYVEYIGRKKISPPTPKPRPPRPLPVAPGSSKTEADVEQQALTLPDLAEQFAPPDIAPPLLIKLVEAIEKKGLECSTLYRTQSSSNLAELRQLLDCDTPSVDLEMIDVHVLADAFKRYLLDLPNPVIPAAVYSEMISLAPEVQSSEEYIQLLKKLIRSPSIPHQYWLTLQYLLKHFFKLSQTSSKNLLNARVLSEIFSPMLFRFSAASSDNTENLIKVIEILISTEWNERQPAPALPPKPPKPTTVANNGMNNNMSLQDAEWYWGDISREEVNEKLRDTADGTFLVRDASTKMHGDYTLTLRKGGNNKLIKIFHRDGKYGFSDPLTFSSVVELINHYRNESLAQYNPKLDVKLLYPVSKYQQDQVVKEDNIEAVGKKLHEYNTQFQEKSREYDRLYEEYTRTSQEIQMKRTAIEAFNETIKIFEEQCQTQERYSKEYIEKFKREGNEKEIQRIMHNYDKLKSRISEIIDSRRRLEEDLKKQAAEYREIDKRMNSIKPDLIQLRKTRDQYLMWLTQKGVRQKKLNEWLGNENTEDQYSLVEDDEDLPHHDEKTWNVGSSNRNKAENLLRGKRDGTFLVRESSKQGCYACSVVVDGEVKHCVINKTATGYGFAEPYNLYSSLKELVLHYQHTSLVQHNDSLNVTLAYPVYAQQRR

Counter-ions that a name gives are not always drawn.

Sequence of PI3Kγ (P48736 whole entry, species assumed): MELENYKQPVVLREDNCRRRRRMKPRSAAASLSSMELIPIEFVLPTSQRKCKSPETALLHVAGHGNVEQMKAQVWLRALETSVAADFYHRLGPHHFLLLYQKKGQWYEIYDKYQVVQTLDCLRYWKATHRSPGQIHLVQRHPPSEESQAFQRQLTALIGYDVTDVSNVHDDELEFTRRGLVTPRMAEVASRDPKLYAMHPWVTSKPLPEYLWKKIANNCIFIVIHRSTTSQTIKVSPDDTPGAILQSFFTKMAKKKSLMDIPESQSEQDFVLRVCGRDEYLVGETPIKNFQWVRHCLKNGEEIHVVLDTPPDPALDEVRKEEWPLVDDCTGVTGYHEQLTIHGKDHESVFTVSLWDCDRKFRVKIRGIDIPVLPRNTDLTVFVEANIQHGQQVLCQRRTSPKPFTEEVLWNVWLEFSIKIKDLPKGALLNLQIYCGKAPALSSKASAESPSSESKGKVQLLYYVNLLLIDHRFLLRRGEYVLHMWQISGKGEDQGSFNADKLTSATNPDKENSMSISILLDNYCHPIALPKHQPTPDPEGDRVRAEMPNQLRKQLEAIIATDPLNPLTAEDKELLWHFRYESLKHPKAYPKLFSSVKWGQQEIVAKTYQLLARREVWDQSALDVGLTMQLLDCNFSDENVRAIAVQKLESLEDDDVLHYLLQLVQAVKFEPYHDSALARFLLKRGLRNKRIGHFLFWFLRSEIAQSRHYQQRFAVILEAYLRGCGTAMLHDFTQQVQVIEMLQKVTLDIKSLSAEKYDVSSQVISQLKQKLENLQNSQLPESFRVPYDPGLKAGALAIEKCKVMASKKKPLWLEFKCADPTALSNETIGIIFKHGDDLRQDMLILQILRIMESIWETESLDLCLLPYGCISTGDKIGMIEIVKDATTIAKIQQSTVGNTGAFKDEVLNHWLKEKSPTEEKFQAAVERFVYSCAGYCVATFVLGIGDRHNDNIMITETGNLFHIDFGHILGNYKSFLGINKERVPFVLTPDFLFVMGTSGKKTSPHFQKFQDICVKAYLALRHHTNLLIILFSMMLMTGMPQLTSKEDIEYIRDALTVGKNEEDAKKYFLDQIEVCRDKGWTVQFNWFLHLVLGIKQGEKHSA

`CCOC(=O)Nc1ccc2c(c1)C(=O)/C(=C/c1cn(C)c3nccc(N4CCC(C(=O)N(C)C)CC4)c13)O2` (as salt: Na) [Compound 171, ethyl[(2Z)-2-({4-[4-(dimethylcarbamoyl)piperidin-1-yl]-1-methyl-1H-pyrrolo[2,3-b]pyridin-3-yl}methylidene)-3-oxo-2,3-dihydro-1-benzofuran-5-yl]carbamate] had a melting point of 162 to 167 °C.

`Cn1cc(/C=C2\Oc3cc(O)ccc3C2=O)c2c(-c3ccccc3)ccnc21` [Compound 30, (2Z)-6-hydroxy-2-[(1-methyl-4-phenyl-1H-pyrrolo[2,3-b]pyridin-3-yl)methylene]-1-benzofuran-3(2H)-one]: the melting point is 314 to 316 °C (dec.). The IC50 on PI3Kγ came to 2380 nM. Further, at mTOR, the IC50 amounted to 19 nM. In addition, the IC50 at PI3Kα amounted to 219 nM.

`Cn1cc(/C=C2\Oc3cccc(O)c3C2=O)c2c(-c3ccccc3)ccnc21` [Compound 31, (2Z)-4-hydroxy-2-[(1-methyl-4-phenyl-1H-pyrrolo[2,3-b]pyridin-3-yl)methylene]-1-benzofuran-3(2H)-one] registered a melting point of 274 to 275 °C. Besides, the IC50 at PI3Kγ turned out to be 187 nM. The IC50 at mTOR was found to be 3.5 nM. The IC50 at PI3Kα was found to be 89 nM.

Consider `Cn1cc(/C=C2\Oc3cc(O)cc(F)c3C2=O)c2c(-c3ccccc3)ccnc21` [Compound 32, (2Z)-4-fluoro-6-hydroxy-2-[(1-methyl-4-phenyl-1H-pyrrolo[2,3-b]pyridin-3-yl)methylene]-1-benzofuran-3(2H)-one], for which the melting point is 325 to 327 °C (dec.). For the same compound, the IC50 at PI3Kγ was 1050 nM. The IC50 on mTOR is 46.5 nM. On PI3Kα, the IC50 is 98 nM.

Regarding `Cn1cc(/C=C2\Oc3ccc(Br)cc3C2=O)c2c(-c3ccccc3)ccnc21` [Compound 37, (2Z)-5-bromo-2-[(1-methyl-4-phenyl-1H-pyrrolo[2,3-b]pyridin-3-yl)methylene]-1-benzofuran-3(2H)-one], the melting point is 227 to 229 °C. Also, the IC50 on PI3Kγ came to 4000 nM. For the same compound, the IC50 on mTOR is over 4000 nM. In addition, the IC50 on PI3Kα worked out at 6860 nM.

Turning to `CNC(=O)Nc1ccc2c(c1)C(=O)/C(=C/c1cn(C)c3nccc(-c4ccccc4)c13)O2` [Compound 38, 1-methyl-3-{(2Z)-2-[(1-methyl-4-phenyl-1H-pyrrolo[2,3-b]pyridin-3-yl)methylene]-3-oxo-2,3-dihydro-1-benzofuran-5-yl}urea], the melting point was 265 to 270 °C (dec.). Besides, at PI3Kγ, the IC50 was determined as 1570 nM. For the same compound, on mTOR, the IC50 came to 37 nM. Further, the IC50 at PI3Kα was 234 nM.

`Cn1cc(/C=C2\Oc3cc(O)cc(O)c3C2=O)c2c(C#Cc3ccccc3)ccnc21` [Compound 39, (2Z)-4,6-dihydroxy-2-{[1-methyl-4-(phenylethynyl)-1H-pyrrolo[2,3-b]pyridin-3-yl]methylene}-1-benzofuran-3(2H)-one] displayed a melting point of 308 to 310 °C. Further, on PI3Kγ, the IC50 was 104 nM. The IC50 at mTOR was found to be 5.7 nM. The IC50 at PI3Kα came to 106 nM.

Take `Cn1cc(/C=C2\Oc3cc(O)cc(O)c3C2=O)c2c(N3CCCCC3)ccnc21` [Compound 40, (2Z)-4,6-dihydroxy-2-[(1-methyl-4-piperidin-1-yl-1H-pyrrolo[2,3-b]pyridin-3-yl)methylene]-1-benzofuran-3(2H)-one]: the melting point was in the range of 322 to 324 °C. Further, the IC50 on PI3Kγ worked out at 282 nM. Also, at mTOR, the IC50 turned out to be 0.6 nM. For the same compound, the half-inhibitory concentration (IC50) at PI3Kα was 68 nM.

On to `Cn1cc(/C=C2\Oc3ccc(O)cc3C2=O)c2c(-c3ccccc3)ccnc21` [Compound 42, (2Z)-5-hydroxy-2-[(1-methyl-4-phenyl-1H-pyrrolo[2,3-b]pyridin-3-yl)methylene]-1-benzofuran-3(2H)-one], for which the melting point was 352 to 354 °C (dec.). The IC50 on PI3Kγ is over 10000 nM. Moreover, the IC50 at mTOR amounted to 22.5 nM. Besides, the IC50 at PI3Kα amounted to 129 nM.

Take `Cn1cc(/C=C2\Oc3cc(O)cc(O)c3C2=O)c2c(N3CCCC3)ccnc21` [Compound 46, (2Z)-4,6-dihydroxy-2-[(1-methyl-4-pyrrolidin-1-yl-1H-pyrrolo[2,3-b]pyridin-3-yl)methylene]-1-benzofuran-3(2H)-one]: the melting point lay in the range of 312 to 315 °C. Also, at PI3Kγ, the IC50 stood at 240 nM. Further, at mTOR, the IC50 was found to be 1.6 nM. Further, the IC50 at PI3Kα amounted to 59 nM.

In the case of `Cn1cc(/C=C2\Oc3cc(O)cc(O)c3C2=O)c2c(-c3cncnc3)ccnc21` [Compound 62, (2Z)-4,6-dihydroxy-2-[(1-methyl-4-pyrimidin-5-yl-1H-pyrrolo[2,3-b]pyridin-3-yl)methylene]-1-benzofuran-3(2H)-one], the melting point is 340 °C. Further, the IC50 at mTOR is 4.3 nM.

`CN1CC2CC1CN2c1ccnc2c1c(/C=C1\Oc3cccc(O)c3C1=O)cn2C` (stereo not drawn) [Compound 153, (2Z)-4-hydroxy-2-{[1-methyl-4-(5-methyl-2,5-diazabicyclo[2.2.1]hept-2-yl)-1H-pyrrolo[2,3-b]pyridin-3-yl]methylidene}-1-benzofuran-3(2H)-one]: the melting point was 220 °C (dec.). For the same compound, the IC50 on PI3Kγ is 148 nM. Besides, the IC50 at mTOR was found to be 16 nM.

As for `CN(C)C(=O)C1CCN(c2ccnc3c2c(/C=C2\Oc4ccc(NC(=O)C(F)(F)F)cc4C2=O)cn3C)CC1` [Compound 163, N,N-dimethyl-1-{1-methyl-3-[(Z)-{3-oxo-5-[(trifluoroacetyl)amino]-1-benzofuran-2(3H)-ylidene}methyl]-1H-pyrrolo[2,3-b]pyridin-4-yl}piperidine-4-carboxamide], the melting point is 236 to 240 °C. Besides, the IC50 on PI3Kγ was over 10000 nM. Also, the IC50 on PI3Kα amounted to 5640 nM.

As for `CC(C)NC(=O)Nc1ccc2c(c1)C(=O)/C(=C/c1cn(C)c3nccc(N4CCC(C(=O)N(C)C)CC4)c13)O2` [Compound 288, N,N-dimethyl-1-(1-methyl-3-{(Z)-[5-{[(1-methylethyl)carbamoyl]amino}-3-oxo-1-benzofuran-2(3H)-ylidene]methyl}-1H-pyrrolo[2,3-b]pyridin-4-yl)piperidine-4-carboxamide], the IC50 on PI3Kγ was found to be 3780 nM; on mTOR, 73 nM; at PI3Kα, 1490 nM.

For the compound `Cn1cc(/C=C2\Oc3ccc(NC(=O)Nc4nc5ccccc5n4C)cc3C2=O)c2c(N3CC4CCC(C3)O4)ccnc21` [Compound 289, 1-(1-methyl-1H-benzimidazol-2-yl)-3-[(2Z)-2-{[1-methyl-4-(8-oxa-3-azabicyclo[3.2.1]oct-3-yl)-1H-pyrrolo[2,3-b]pyridin-3-yl]methylidene}-3-oxo-2,3-dihydro-1-benzofuran-5-yl]urea], the IC50 at PI3Kγ is over 10000 nM; at mTOR, 205 nM; on PI3Kα, 5710 nM.

For the compound `CN(C)C(=O)C1CCN(c2ccnc3c2c(/C=C2\Oc4ccc(NC(=O)Nc5nc6ccccc6n5C)cc4C2=O)cn3C)CC1` [Compound 290, N,N-dimethyl-1-(1-methyl-3-{(Z)-[5-{[(1-methyl-1H-benzimidazol-2-yl)carbamoyl]amino}-3-oxo-1-benzofuran-2(3H)-ylidene]methyl}-1H-pyrrolo[2,3-b]pyridin-4-yl)piperidine-4-carboxamide], the IC50 on PI3Kγ was over 10000 nM; on mTOR, 150 nM; at PI3Kα, 1250 nM.

In the case of `CN(C)C(=O)C1CCN(c2ccnc3c2c(/C=C2\Oc4ccc(NC(=O)NC5CC5)cc4C2=O)cn3C)CC1` [Compound 291, 1-{3-[(Z)-{5-[(cyclopropylcarbamoyl)amino]-3-oxo-1-benzofuran-2(3H)-ylidene}methyl]-1-methyl-1H-pyrrolo[2,3-b]pyridin-4-yl}-N,N-dimethylpiperidine-4-carboxamide], the IC50 on PI3Kγ is 4680 nM; on mTOR, 59 nM; on PI3Kα it was 2550 nM.

For `Cn1cc(/C=C2\Oc3ccc(NC(=O)Nc4cccnc4)cc3C2=O)c2c(C3=CCOCC3)ccnc21` [Compound 294, 1-[(2Z)-2-{[4-(3,6-dihydro-2H-pyran-4-yl)-1-methyl-1H-pyrrolo[2,3-b]pyridin-3-yl]methylidene}-3-oxo-2,3-dihydro-1-benzofuran-5-yl]-3-pyridin-3-ylurea], the IC50 on PI3Kγ is over 10000 nM; on mTOR it was 27.5 nM; on PI3Kα, 2080 nM.

For `Cn1cc(/C=C2\Oc3ccc(NC(=O)Nc4ccc(F)nc4)cc3C2=O)c2c(N3CC4CCC(C3)O4)ccnc21` [Compound 298, 1-(6-fluoropyridin-3-yl)-3-[(2Z)-2-{[1-methyl-4-(8-oxa-3-azabicyclo[3.2.1]oct-3-yl)-1H-pyrrolo[2,3-b]pyridin-3-yl]methylidene}-3-oxo-2,3-dihydro-1-benzofuran-5-yl]urea], the figures for the IC50 on PI3Kγ, on mTOR and at PI3Kα were 2120 nM, 26 nM and 274 nM, respectively.

Take `CN(C)C(=O)C1CCN(c2ccnc3c2c(/C=C2\Oc4ccc(NC(=O)NC5CCN(C(=O)C(F)(F)F)CC5)cc4C2=O)cn3C)CC1` [Compound 300, N,N-dimethyl-1-(1-methyl-3-{(Z)-[3-oxo-5-({[1-(trifluoroacetyl)piperidin-4-yl]carbamoyl}amino)-1-benzofuran-2(3H)-ylidene]methyl}-1H-pyrrolo[2,3-b]pyridin-4-yl)piperidine-4-carboxamide]: the 50% inhibitory concentration (IC50) stood at 3540 nM on PI3Kγ, 105 nM at mTOR and 736 nM on PI3Kα.

“(2Z)-2-({4-[4-(5,6-dihydro-4H-1,3-oxazin-2-yl)phenyl]-1-methyl-1H-pyrrolo[2,3- b]pyridin-3-yl}methylidene)-4-hydroxy-1-benzofuran-3(2H)-one [Compound 22]”: the results for the IC50 on PI3Kγ, on mTOR and on PI3Kα were 276 nM, 4.6 nM and 109 nM, respectively.

Consider “(2Z)-4-hydroxy-2-{[1-methyl-4-(1H-pyrrol-2-yl)-1H-pyrrolo[2,3-b]pyridin-3-yl]methylidene}-1-benzofuran-3(2H)-one [Compound 23]”, for which the IC50 on PI3Kγ turned out to be 2090 nM; on mTOR, 50.5 nM; at PI3Kα, 381 nM.
